Assay results as given in patent publication US11542280B2, “Substituted pyrimidinium compounds and derivatives for combating animal pests” (BASF SE, priority 2017, dated 2023).

Key:
Type in all cases: in vivo
Nephotettix virescens = assay: Rice green leafhopper spray test on rice seedlings; details: adults on sprayed rice seedlings, after 72 hours, read-out: mortality in comparison with untreated controls
Experimental: (§1) General conditions: If not otherwise specified, the test solutions are prepared as follows:
(§2) The active compound is dissolved at the desired concentration in a mixture of 1:1 (vol:vol) distilled water: acetone. The test solution is prepared at the day of use.
(§3) Test solutions are prepared in general at different concentrations (wt/vol).
(§4) Rice seedlings are cleaned and washed 24 hours before spraying. The active compounds are formulated in 50:50 acetone:water (vol:vol), and 0.1% vol/vol surfactant (EL 620) is added. Potted rice seedlings are sprayed with 5 ml test solution, air dried, placed in cages and inoculated with 10 adults. Treated rice plants are kept at about 28-29° C. and relative humidity of about 50-60%. Percent mortality is recorded after 72 hours.

Nilaparvata lugens = assay: Rice brown plant hopper spray test on rice seedlings; details: adults on sprayed rice seedlings, after 72 hours, read-out: mortality in comparison with untreated controls
Experimental: as §1, §2, §3
as §4, with “(vol:vol)” for “(vol:vol),”

Dichromothrips corbetti = assay: Orchid thrips floral-immersion test; details: adult thrips, 72 hours after treatment, read-out: mortality in comparison with untreated controls
Experimental: as §1, §2, §3
Dichromothrips corbetti adults used for bioassay are obtained from a colony maintained continuously under laboratory conditions. For testing purposes, the test compound is diluted in a 1:1 mixture of acetone:water (vol:vol), plus 0.01% vol/vol Alkamuls® EL 620 surfactant.
Thrips potency of each compound is evaluated by using a floral-immersion technique. Plastic petri dishes are used as test arenas. All petals of individual, intact orchid flowers are dipped into treatment solution and allowed to dry. Treated flowers are placed into individual petri dishes along with about 20 adult thrips. The petri dishes v then covered with lids. All test arenas are held under continuous light and a temperature of about 28° C. for duration of the assay. After 3 days, the numbers of live thrips are counted on each flower, and along inner walls of each petri dish. The percent mortality is recorded 72 hours after treatment.

Measured: mortality at 500 ppm

Cn1c2[n+](c([O-])c(-c3ccccc3)c1=O)C(CC#N)CS2 (stereo not drawn) [Example C1, 3-(cyanomethyl)-8-methyl-7-oxo-6-phenyl-2,3-dihydrothiazolo[3,2-a]pyrimidin-4-ium-5-olate]
> 75%: all assays above
